Reference: patent US20230286970A1, “NOVEL OXADIAZOLE-BASED SELECTIVE HDAC6 INHIBITORS” (ITALFARMACO S.P.A., priority 2020, published 2023)

How the values were obtained:
HDAC8 = HDAC8 (Homo sapiens (Human), UniProt Q9BY41); test: Enzymatic screening, HDAC8 inhibition; type: biochemical
Description: (§1) For each test compound, 100× concentrated DMSO solutions at 8 doses were prepared and then diluted in assay buffer (25 mM Tris-HCl, pH 8, 130 mM NaCl, 0.05% Tween-20, 10% Glycerol) to obtain 5× concentrated solutions in relation to the final concentrations (typical final concentration range—6.4-200000 nM or 0.18-50000 nM, final DMSO content—1%). Then 10 μL solution of each test compound concentration were placed on a 96-well plate in triplicate and 15 μL of 3.33× concentrated enzyme solution in the assay buffer containing 3.33× concentrated BSA (final BSA concentration—2 mg/mL for HDAC4, HDAC5 and HDAC9 or 1 mg/mL for other isoforms) and in the case of HDAC6-3.33× concentrated TCEP (final TCEP concentration—200 μM) were added to each well. After a period of preincubation (incubation times and temperatures vary for different isoforms and are shown in table 1) 25 μL of solution containing the substrate were added. As substrate, FLUOR DE LYS® deacetylase substrate (Enzo Life Sciences, cat: BML-KI104, FdL), FLUOR DE LYS®-Green substrate (Enzo Life Sciences, cat: BML-KI572, FdL_G) or Boc-Lys(Tfa)-AMC (Bachem, cat: 4060676.005, Tfal)—2× concentrated solution in assay buffer were used. Following a reaction period (reaction times and temperatures vary for different isoforms and are reported in Table 1), 50 μL of the development solution consisting of concentrate FLUOR DE LYS® developer I (Enzo Life Sciences, ca: BML-KI105), diluted 200 times in buffer (50 mM Tris-HCl, pH 8, 137 mM NaCl, 2.7 mM KCl, 1 mM MgCl2) plus 2 μM TSA was added and, after 25 minutes at room temperature in the dark, using the Victor 1420 Multilabel Counter Perkin Elmer Wallac instrument, the fluorescence reading was carried out.

HDAC5 = HDAC5 (Homo sapiens (Human), UniProt Q9UQL6); test: Enzymatic screening, HDAC5 inhibition; type: biochemical
Description: as §1

HDAC3 = HDAC3 (Homo sapiens (Human), UniProt O15379); test: Enzymatic screening, HDAC3 inhibition; type: biochemical
Description: as §1

HDAC2 = HDAC2 (Homo sapiens (Human), UniProt Q92769); test: Enzymatic screening, HDAC2 inhibition; type: biochemical
Description: as §1

Stability in rat plasma = conditions: after 4 hours, 37° C.
recombinant human HDAC1 = recombinant human HDAC1 (Homo sapiens (Human), UniProt Q13547); test: Enzymatic screening, HDAC1 inhibition (fluorogenic FdL_G substrate); type: biochemical
Outline: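 Recombinant human HDAC1 inhibition was measured fluorometrically using the FLUOR DE LYS-Green (FdL_G) substrate. Compounds at 8 doses (1% DMSO final) in Tris-HCl pH 8 buffer with NaCl, Tween-20 and glycerol were preincubated in triplicate with enzyme and 1 mg/mL BSA, then given substrate. Developer I plus 2 μM TSA was added, and fluorescence read after 25 minutes in the dark.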

[1] = tested on: α-tubulin acetylation in 697 cell line; test: In vitro α-tubulin acetylation in 697 cell line (ELISA); type: cell-based; conditions: 16 hours, read-out: fold increase @ 1 uM TubAc (ratio of acetylated tubulin and total tubulin towards control)
Description: The in vitro α-tubulin acetylation determination was evaluated on B 697 promyelocytic cell line.
The test molecules were diluted from 20 mM stock solution in DMSO with RPMI 10% FCS+0.01% DMSO medium at 20× concentration compared to the final concentration, added to the cells (15×10^6 cells in a total volume of 30 mL in RPMI medium 10% FCS+0.01% DMSO) to obtain the final concentrations of 1000, 333, 111, 37 nM and incubated at 37° C., 5% CO2 for 16 hours.
At the end of the incubation period, 5×10^6 cells were taken from each sample, centrifuged for 5 minutes at 1100 rpm and washed in 0.9% NaCl at 4° C. The resulting pellet was lysed by treating at 4° C. for 30 minutes with 150 μl of Complete Lysis-M buffer containing protease inhibitors (Complete Lysis-M Roche+Complete Tablets, Mini Easypack, cat: 4719956001) and phosphatase inhibitor cocktails (PhosStop Easypack, Roche, cat: 4906837001), then centrifuged 10 minutes at 14,000 rpm (20817×g). 0.3 μg of supernatant (total protein extract) were diluted in 100 μl of 1×PBS and immobilized in Maxisorp F96 NUN-IMMUNO Plate (Nunc MaxiSorp flat-bottom, Nunc, cat: 442404) at room temperature overnight. Plates were washed twice with Wash Buffer (PBS1×+0.005% tween 20) and saturated for 1 hour at room temperature with 300 μL of 1×PBS containing 10% FCS. After washing twice with Wash Buffer, the plates were incubated for two hours at room temperature in the presence of anti-acetylated-α-tubulin antibody (Monoclonal Anti-acetylated-tubulin clone 6-11B-1, mouse ascites fluid, Sigma, cat: T6793), 100 μl/well diluted 1:1000 in 1×PBS containing 10% FCS) or with total anti-α-tubulin antibody (Monoclonal Anti-alpha-tubulin produced in mouse, Sigma, cat: T6074). Following washing of the pates 5 times with Wash Buffer the secondary antibody conjugated with the enzyme HRP (Goat anti-Mouse IgG, IgM, IgA (H+L), Thermo Fisher Scientific, cat: A10668), diluted 1:1000 in 1×PBS+10% FBS was added at the volume of 100 μl/well.
After washing 4 times, 100 μl/well of TMB substrate kit was added for 10 minutes at room temperature in the dark. The reaction was stopped by adding 50 μl of 2N H2SO4. The plates were read at Multiskan Spectrum spectrophotometer at a wavelength of 450 nm.
The degree of acetylation was calculated by dividing the absorbance obtained for acetylated α-tubulin by the absorbance of total tubulin.
The results of tubulin acetylation, expressed as fold increase of ratio of acetylated α-tubulin/total α-tubulin, of each sample relative to the control sample (untreated) are summarized in table 6.

HDAC4 = HDAC4 (Homo sapiens (Human), UniProt P56524); test: Enzymatic screening, HDAC4 inhibition; type: biochemical
Description: as §1

[2] = Stability in human plasma; conditions: after 4 hours, 37° C.
HDAC11 = HDAC11 (Homo sapiens (Human), UniProt Q96DB2); test: Enzymatic screening, HDAC11 inhibition; type: biochemical
Description: as §1

HDAC9 = HDAC9 (Homo sapiens (Human), UniProt Q9UKV0); test: Enzymatic screening, HDAC9 inhibition; type: biochemical
Description: as §1

HDAC10 = HDAC10 (Homo sapiens (Human), UniProt Q969S8); test: Enzymatic screening, HDAC10 inhibition; type: biochemical
Description: as §1

recombinant human HDAC6 = recombinant human HDAC6 (Homo sapiens (Human), UniProt Q9UBN7); test: Enzymatic screening, HDAC6 inhibition (fluorogenic FdL_G substrate); type: biochemical
Outline: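 Enzyme was preincubated with compound (8 doses, triplicate, 1% DMSO) in 25 mM Tris-HCl pH 8, 130 mM NaCl, 0.05% Tween-20, 10% glycerol, with BSA. A FLUOR DE LYS-Green substrate was then added, and fluorescence was read after developer plus 2 μM TSA.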

[3] = Stability to Phase I metabolism in rat S9 liver fraction; conditions: after 90 minutes, 37° C.
HDAC7 = HDAC7 (Homo sapiens (Human), UniProt Q8WUI4); test: Enzymatic screening, HDAC7 inhibition; type: biochemical
Description: as §1

[4] = Stability to Phase I metabolism in human S9 liver fraction; conditions: after 90 minutes, 37° C.

HDAC2, sequence (Q92769 whole entry): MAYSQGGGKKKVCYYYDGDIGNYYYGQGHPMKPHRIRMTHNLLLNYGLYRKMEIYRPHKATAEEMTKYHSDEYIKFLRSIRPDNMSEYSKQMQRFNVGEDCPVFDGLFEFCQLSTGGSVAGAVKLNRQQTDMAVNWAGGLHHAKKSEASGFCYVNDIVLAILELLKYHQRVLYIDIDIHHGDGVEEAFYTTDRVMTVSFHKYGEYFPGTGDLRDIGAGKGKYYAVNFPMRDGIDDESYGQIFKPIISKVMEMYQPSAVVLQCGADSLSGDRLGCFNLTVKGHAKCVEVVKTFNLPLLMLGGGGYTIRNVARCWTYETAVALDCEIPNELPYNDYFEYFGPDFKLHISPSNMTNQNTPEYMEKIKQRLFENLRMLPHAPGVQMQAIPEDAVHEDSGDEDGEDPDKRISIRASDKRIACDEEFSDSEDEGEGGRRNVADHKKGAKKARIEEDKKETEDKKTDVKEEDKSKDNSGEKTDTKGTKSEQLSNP
HDAC4, sequence (P56524 whole entry): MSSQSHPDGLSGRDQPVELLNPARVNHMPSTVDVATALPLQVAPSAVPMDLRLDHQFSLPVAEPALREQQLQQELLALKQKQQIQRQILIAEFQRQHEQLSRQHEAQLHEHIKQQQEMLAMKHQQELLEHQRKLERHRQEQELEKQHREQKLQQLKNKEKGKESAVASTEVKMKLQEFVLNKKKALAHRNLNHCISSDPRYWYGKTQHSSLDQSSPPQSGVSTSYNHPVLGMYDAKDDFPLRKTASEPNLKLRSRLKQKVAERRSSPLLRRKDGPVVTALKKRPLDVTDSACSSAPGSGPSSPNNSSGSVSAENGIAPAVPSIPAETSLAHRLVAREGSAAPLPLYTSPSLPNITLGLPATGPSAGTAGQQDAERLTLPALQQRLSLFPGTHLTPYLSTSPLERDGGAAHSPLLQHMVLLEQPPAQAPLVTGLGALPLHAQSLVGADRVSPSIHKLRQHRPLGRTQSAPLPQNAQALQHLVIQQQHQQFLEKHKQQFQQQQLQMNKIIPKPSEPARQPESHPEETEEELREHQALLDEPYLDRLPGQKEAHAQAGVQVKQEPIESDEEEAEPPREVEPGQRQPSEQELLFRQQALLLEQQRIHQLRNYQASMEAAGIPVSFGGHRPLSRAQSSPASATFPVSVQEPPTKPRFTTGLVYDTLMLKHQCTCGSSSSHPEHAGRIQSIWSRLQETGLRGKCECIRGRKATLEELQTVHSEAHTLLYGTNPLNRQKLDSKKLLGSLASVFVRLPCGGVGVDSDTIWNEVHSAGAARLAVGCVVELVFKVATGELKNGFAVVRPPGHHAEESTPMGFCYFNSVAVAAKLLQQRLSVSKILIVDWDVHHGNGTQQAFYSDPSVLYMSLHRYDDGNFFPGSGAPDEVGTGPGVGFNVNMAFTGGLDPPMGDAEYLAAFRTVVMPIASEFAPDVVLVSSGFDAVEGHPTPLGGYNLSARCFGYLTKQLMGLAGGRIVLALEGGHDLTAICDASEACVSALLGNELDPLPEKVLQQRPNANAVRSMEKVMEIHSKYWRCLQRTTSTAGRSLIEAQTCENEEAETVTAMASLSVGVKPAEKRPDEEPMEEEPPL
HDAC7, sequence (Q8WUI4 whole entry): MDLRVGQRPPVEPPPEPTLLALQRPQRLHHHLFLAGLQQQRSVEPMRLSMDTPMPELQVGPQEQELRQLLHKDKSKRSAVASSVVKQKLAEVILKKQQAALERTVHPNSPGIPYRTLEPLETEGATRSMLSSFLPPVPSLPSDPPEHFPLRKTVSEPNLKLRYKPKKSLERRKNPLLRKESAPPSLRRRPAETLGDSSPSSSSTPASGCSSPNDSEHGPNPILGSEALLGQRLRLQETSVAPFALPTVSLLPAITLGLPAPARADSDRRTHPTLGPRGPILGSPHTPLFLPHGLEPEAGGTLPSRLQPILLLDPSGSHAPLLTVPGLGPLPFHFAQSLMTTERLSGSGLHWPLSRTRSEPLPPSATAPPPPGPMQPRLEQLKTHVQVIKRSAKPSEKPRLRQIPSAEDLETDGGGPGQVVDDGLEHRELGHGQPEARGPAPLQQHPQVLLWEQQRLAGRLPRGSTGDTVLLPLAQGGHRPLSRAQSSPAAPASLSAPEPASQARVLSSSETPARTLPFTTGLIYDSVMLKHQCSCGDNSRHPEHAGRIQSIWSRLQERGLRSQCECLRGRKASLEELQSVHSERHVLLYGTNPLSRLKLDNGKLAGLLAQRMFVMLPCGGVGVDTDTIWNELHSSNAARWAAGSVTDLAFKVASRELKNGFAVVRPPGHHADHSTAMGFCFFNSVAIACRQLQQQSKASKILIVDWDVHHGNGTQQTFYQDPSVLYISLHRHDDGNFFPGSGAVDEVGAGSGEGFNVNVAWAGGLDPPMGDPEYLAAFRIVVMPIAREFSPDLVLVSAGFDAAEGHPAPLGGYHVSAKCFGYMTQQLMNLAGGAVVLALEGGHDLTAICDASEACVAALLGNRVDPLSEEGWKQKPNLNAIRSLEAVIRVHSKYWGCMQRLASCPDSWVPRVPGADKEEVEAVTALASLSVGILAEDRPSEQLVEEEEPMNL
recombinant human HDAC1, sequence (Q13547 whole entry): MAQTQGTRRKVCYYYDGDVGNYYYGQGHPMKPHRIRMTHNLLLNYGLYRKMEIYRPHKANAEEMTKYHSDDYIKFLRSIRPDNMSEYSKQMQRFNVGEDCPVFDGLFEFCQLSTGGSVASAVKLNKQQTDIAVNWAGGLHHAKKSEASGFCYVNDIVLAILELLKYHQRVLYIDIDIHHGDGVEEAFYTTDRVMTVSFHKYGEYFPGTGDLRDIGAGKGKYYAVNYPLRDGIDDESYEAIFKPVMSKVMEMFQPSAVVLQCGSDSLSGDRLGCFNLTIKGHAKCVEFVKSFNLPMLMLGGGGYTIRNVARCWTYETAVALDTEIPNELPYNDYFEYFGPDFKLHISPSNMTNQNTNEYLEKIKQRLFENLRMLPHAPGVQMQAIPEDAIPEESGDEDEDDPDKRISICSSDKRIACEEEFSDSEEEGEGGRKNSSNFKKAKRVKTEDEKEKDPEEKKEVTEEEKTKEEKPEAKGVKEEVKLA
HDAC10, sequence (Q969S8 whole entry): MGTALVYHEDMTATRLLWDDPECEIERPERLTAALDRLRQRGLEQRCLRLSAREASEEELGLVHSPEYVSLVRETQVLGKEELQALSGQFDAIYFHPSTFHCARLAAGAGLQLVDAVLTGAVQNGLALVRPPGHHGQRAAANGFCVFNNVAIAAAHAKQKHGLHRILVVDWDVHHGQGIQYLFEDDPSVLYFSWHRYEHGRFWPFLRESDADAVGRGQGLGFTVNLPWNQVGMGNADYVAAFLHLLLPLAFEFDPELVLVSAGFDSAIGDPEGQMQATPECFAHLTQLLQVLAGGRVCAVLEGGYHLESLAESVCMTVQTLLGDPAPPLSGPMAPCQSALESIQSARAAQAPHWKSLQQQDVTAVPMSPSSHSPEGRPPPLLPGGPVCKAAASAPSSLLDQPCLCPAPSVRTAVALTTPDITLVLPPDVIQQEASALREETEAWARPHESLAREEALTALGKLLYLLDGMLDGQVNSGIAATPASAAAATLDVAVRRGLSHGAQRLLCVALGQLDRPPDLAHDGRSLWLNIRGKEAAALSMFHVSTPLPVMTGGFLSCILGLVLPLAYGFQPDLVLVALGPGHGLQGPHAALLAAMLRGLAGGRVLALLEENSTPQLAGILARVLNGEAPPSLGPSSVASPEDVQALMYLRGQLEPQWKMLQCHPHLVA
HDAC9, sequence (Q9UKV0 whole entry): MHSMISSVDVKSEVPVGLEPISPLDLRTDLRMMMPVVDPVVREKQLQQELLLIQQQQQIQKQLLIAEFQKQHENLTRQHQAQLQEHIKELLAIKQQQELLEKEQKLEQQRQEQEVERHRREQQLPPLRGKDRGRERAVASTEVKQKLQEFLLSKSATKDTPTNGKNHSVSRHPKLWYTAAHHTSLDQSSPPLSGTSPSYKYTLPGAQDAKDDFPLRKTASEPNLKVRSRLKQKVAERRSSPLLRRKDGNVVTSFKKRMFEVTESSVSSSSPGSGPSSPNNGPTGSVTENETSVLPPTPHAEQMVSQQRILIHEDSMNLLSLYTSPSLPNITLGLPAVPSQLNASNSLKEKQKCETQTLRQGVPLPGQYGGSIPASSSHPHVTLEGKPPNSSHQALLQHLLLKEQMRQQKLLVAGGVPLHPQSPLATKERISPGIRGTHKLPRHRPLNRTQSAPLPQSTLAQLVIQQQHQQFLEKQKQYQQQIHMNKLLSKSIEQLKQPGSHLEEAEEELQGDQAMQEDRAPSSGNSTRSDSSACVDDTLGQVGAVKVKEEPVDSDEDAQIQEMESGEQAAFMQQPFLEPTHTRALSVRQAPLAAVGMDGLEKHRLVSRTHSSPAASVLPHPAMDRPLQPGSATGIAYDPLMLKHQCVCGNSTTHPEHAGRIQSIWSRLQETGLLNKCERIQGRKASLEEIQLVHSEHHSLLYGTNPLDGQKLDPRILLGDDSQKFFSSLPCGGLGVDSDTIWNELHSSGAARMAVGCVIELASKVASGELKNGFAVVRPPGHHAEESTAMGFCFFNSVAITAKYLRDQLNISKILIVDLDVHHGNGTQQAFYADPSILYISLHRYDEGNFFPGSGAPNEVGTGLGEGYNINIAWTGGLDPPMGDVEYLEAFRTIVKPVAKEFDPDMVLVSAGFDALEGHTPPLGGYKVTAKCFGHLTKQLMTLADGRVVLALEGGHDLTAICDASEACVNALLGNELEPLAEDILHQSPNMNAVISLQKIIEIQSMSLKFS
HDAC11, sequence (Q96DB2 whole entry): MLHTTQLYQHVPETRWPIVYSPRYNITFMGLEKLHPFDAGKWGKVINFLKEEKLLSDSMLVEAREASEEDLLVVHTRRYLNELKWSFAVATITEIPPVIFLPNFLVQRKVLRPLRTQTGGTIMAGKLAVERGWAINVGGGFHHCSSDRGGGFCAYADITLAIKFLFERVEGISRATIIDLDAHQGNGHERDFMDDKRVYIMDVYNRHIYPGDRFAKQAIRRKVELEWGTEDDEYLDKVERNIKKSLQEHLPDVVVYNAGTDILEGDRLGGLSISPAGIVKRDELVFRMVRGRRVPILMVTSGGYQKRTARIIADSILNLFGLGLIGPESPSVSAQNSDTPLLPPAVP

IC50 (HDAC8) [µM] | IC50 (HDAC5) [µM] | IC50 (HDAC3) [µM] | IC50 (HDAC2) [µM] | residual percentage in RAT PLASMA (Stability in rat plasma) [%] | IC50 (recombinant human HDAC1) [µM] | IC50 (HDAC4) [µM] | residual percentage in HUMAN PLASMA [2] [%] | IC50 (HDAC11) [µM] | IC50 (HDAC9) [µM] | IC50 (HDAC10) [µM] | IC50 (recombinant human HDAC6) [µM] | residual percentage in RAT S9 FRACTION [3] [%] | IC50 (HDAC7) [µM] | residual percentage in HUMAN S9 FRACTION [4] [%] | SMILES | fold induction at 1 µM [1]
> 200 | > 30 | > 30 | > 30 | 79 | > 200 | > 30 | 85 | > 30 | > 30 | > 30 | 0.007 | 96 | > 30 | 93 | Nc1nc2ccc(-c3cn(Cc4ccc(-c5nnc(C(F)F)o5)cn4)nn3)cc2s1 [Compd. 1, 6-(1-((5-(5-(difluoromethyl)-1,3,4-oxadiazol-2-yl)pyridin-2-yl)methyl)-1H-1,2,3-triazol-4-yl)benzo[d]thiazol-2-amine] | 25
> 200 | > 30 | > 30 | > 30 | 96 | > 200 | > 30 | 92 | > 30 | > 30 | > 30 | 0.017 | 98 | > 30 | 88 | FC(F)c1nnc(-c2ccc(Cn3cnc(-c4ccc(NC5=NCCN5)cc4)c3)cc2)o1 [compound 22, N-(4-(1-(4-(5-(difluoromethyl)-1,3,4-oxadiazol-2-yl)benzyl)-1H-imidazol-4-yl)phenyl)-4,5-dihydro-1H-imidazol-2-amine] | 17
> 200 | > 30 | > 30 | > 30 | 93 | > 200 | > 30 | 93 | > 30 | > 30 | > 30 | 0.013 | 93 | > 30 | 99 | O=C(Nc1cccc(-c2cn(Cc3ccc(-c4nnc(C(F)F)o4)cn3)nn2)c1)N1CCOCC1 [compound 6, N-(3-(1-((5-(5-(difluoromethyl)-1,3,4-oxadiazol-2-yl)pyridin-2-yl)methyl)-1H-1,2,3-triazol-4-yl)phenyl)morpholine-4-carboxamide] | 19
578 | > 30 | > 30 | > 30 | 82 | > 200 | > 30 | 97 | > 30 | > 30 | > 30 | 0.011 | 93 | > 30 | 99 | FC(F)c1nnc(-c2ccc(Cn3cnc(-c4ccc(NC5=NCCN5)cc4)c3)nc2)o1 [compound 20, N-(4-(1-((5-(5-(difluoromethyl)-1,3,4-oxadiazol-2-yl)pyridin-2-yl)methyl)-1H-imidazol-4-yl)phenyl)-4,5-dihydro-1H-imidazol-2-amine] | 11
> 200 | > 30 | > 30 | > 30 | 69 | > 200 | > 30 | 84 | > 30 | > 30 | > 30 | 0.008 | 91 | > 30 | 82 | CCNc1nc2ccc(-c3cn(Cc4ccc(-c5nnc(C(F)F)o5)cn4)nn3)cc2[nH]1 [compound 18, 5-(1-((5-(5-(difluoromethyl)-1,3,4-oxadiazol-2-yl)pyridin-2-yl)methyl)-1H-1,2,3-triazol-4-yl)-N-ethyl-1H-benzo[d]imidazol-2-amine] | 11
> 200 | > 30 | > 30 | > 30 | 81 | > 200 | > 30 | 76 | > 30 | > 30 | > 30 | 0.013 | 96 | > 30 | 92 | Nc1nc2cc(-c3nnn(Cc4ccc(-c5nnc(C(F)F)o5)cn4)n3)ccc2o1 [compound 7, 5-(2-((5-(5-(difluoromethyl)-1,3,4-oxadiazol-2-yl)pyridin-2-yl)methyl)-2H-tetrazol-5-yl)benzo[d]oxazol-2-amine] | 16
